Data taken from US20210355532A1, “METHODS AND REAGENTS FOR DETECTING AND ASSESSING GENOTOXICITY” (TwinStrand Biosciences, Inc., priority 2018, published 2021).
“Also recorded” adds a separate entry of the source.

Legend:
Format in all cases: in vivo, mouse
[1] = tested on: human HRAS transgene codon 61; test: Duplex Sequencing detection of clonal oncogenic mutations in human HRAS transgene of Tg.rasH2 mice; details: day 29
Excerpt: (§1) In this example, the impact of a urethane is examined in different mouse tissue types (lung, spleen, blood) in an FDA-approved cancer-predisposed mouse model: Tg.rasH2 (Saitoh et al. Oncogene 1990. PMID 2202951). This mouse contains ˜3 tandem copies of human Hras with an activating enhancer mutation to boost expression on one hemizygous allele. These mice are predisposed to splenic angiosarcomas and lung adenocarcinomas, and are routinely used for 6 month carcinogenicity studies to substitute for 2 year native animal studies. Tumors found in the mice have usually acquired activating mutations in one copy of the human Hras protooncogene. In this addition to the 4 native mouse genes (Rho, Hp, Ctnnb1, Polr1c), the native mouse Hras and human Hras transgene are also analyzed in this example.
(§2) In this example, Tg.rasH2 mice (n=5/group) were dosed with vehicle or a carcinogenic dose of urethane (day 1,3,5) and sacrificed on day 29 for mutation detection by Duplex Sequencing in target tissues (lung, spleen) and whole blood. The endogenous genes (Rho, Hp, Ctnnb1, Polr1c) and the native mouse and human Hras (trans)genes were also sequenced.
FIG. 15A is a graph illustrating SNVs plotted over the genomic intervals for the exons captured from the Ras family of genes, including the human transgenic loci, in the Tg-rasH2 mouse model. Singlets are mutations found in a single molecule. Multiplets are an identical mutation identified within multiple molecules within the same sampler and may represent a clonal expansion event. The height of each point corresponds to the variant allele frequency (VAF) of each SNV, with the with the size of the point corresponds to the for multiplet observations only. The location and relative frequency of Ras family human cancer mutational hotspots in COSMIC are indicated below each gene. FIG. 15B is a graph illustrating single nucleotide variants (SNVs) aligning to exon 3 of the human HRAS transgene. Highlighted is the center residue in codon number 61 in exon 3 of human HRAS, the most common HRAS cancer-driving hotspot.

Tg.rasH2 mice = test: Duplex Sequencing mutant frequency and spectrum in Tg.rasH2 mice dosed with urethane; details: for Mutation Frequency: urethane day 1,3,5, sacrifice day 29, Duplex Sequencing
Excerpt: as §1, §2
FIG. 8 is a bar graph showing mutant frequency (MF) of lung, spleen and blood samples for control and experimental animals subjected to urethane. In this analysis, every unique variant detected was counted as one mutation, which were summed per sample. This was divided by the total number of Duplex Bases sequenced and across the entire capture region. The number of events is noted above each sample. In total, across all 30 samples, 3,966,947,832 Duplex Sequenced base pairs were generated.
Referring to FIG. 9 and Table 1 together, differences between vehicle control (VC) and treatment groups were highly significant. A Welch's t-test (for unequal variances) was used to determine the significance of the mutagen treated tissue's mutant frequency over that of the control for that tissue. The slightly wider confidence intervals with blood reflects a lower average depth of sequencing in the blood VC samples in this particular example. It is anticipated that this can be corrected using the methods described herein.

[2] = tested on: BigBlue® transgenic C57BL/6 male mice; test: Duplex Sequencing mutant frequency and spectrum in BigBlue transgenic mice (cII transgene and endogenous genes)
Protocol: Tissues were collected and frozen on study day 31. Liver and bone marrow were analyzed for mutants. DNA was isolated and mutants analyzed for cII mutant plaques using RecoverEase and Transpack methods described by Agilent Technologies. Duplex Sequencing was used to sequence cII and other endogenous genes for mutations in liver and bone marrow.
Genes evaluated and criteria used to select genes are as follows: (1) Polr1c (RNA polymerase), which is ubiquitously transcribed in all tissue types; (2) Rho (Rhodopsin), which is not expressed in any tissue besides retina; (3) Hp (Haptoglobin), which is highly expressed in liver, but almost nowhere else; (4) Ctnnb1 (Beta-catenin), which is most commonly mutated gene in human hepatocellular carcinoma; and (5) CII: 360 bp transgenic reporter gene present in ˜80 copies in BigBlue® mice.
FIGS. 3A-3D are box plot graphs showing mutant frequencies calculated for Duplex Sequencing (FIGS. 3A and 3B) and the BigBlue® cII plaque assay (FIGS. 3C and 3D) in liver and bone marrow following mutagen treatment as described above. MF for Duplex Sequencing was based on total mutants per duplex base-pair sequenced (n=5 mice/group). MF for BigBlue® was calculated as number of mutant plaques relative to number of […] (n=6 mice/group).

Row | SMILES | Variant allele frequencies of HRAS codon 61 mutation ([1]; four out of five treated lung samples) | Fraction of treated samples with T>A transversions at human oncogenic Hras codon 61 hotspot ([1]; lung samples) | Fraction of treated samples with T>A transversions at human oncogenic Hras codon 61 hotspot ([1]; splenic samples) | Fold Increase of mutation frequency over vehicle control (Tg.rasH2 mice; Blood) | Mutation Frequency (Tg.rasH2 mice; Blood, Tg.rasH2 mice) | Fold Increase of mutation frequency over vehicle control (Tg.rasH2 mice; Lung) | Mutation Frequency (Tg.rasH2 mice; Lung, Tg.rasH2 mice) | Fold Increase of mutation frequency over vehicle control (Tg.rasH2 mice; Spleen) | Mutation Frequency (Tg.rasH2 mice; Spleen, Tg.rasH2 mice) | Trinucleotide (triplet) mutation spectrum, predominant mutation (Tg.rasH2 mice; lung, spleen, blood, Tg.rasH2 mice) | MF in 4 endogenous genes (Polr1c, rhodopsin, haptoglobin, beta-catenin) ([2]; BigBlue mice, liver and bone marrow) | Mutation spectrum, distinguishing mutation types ([2]; aggregated across all genes, all tissues, unsupervised cluster analysis) | Mutation load relative to controls ([2]; bone marrow and liver, cII transgene, BigBlue mice, study day 31) | Trinucleotide context hotspots (most vulnerable contexts) ([2]; trinucleotide spectra, BigBlue mice)
1 | CCOC(N)=O [Urethane, urethane] | 0.1%-1.8% | ⅘ | ⅕ | 2.2x | 2.39e−07 | 7.5x | 5.04e−07 | 3.3x | 2.73e−07 | T:A→A:T within the motif “NTG” is shown as the most common mutation; also recorded: strong propensity for T→A and T→C mutations within the context of “NTG” |  |  |  | 
2 | CCN(N=O)C(N)=O [ENU, N-ethyl-N-nitrosourea] |  |  |  |  |  |  |  |  |  |  | increased | preponderance of T→C, T→A, and C→T mutations | significantly increased relative to controls | GTS and GTG and GTC
